This note sets out measurements from ChEMBL document CHEMBL1201862, “PubChem BioAssay data set” (2004).

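Each compound was tested at five concentrations against cells in 96-well plates for 48 hours. GI50: concentration for 50% inhibition of growth.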 Calls of active or inactive are those of the source. No stated cut-off is given here; in the data, active = GI50 up to about 1.1 µM and inactive = higher.

Among the test systems are 786-0; CCRF-CEM; HL-60; HOP-62; HOP-92; M14; MDA-MB-231; MDA-MB-435; Malme-3M; NCI-H460; OVCAR-3; OVCAR-5; RPMI-8226; SF-268; SK-MEL-28; SK-MEL-5; SK-OV-3; U-251; UACC-257; HCC 2998.
What all share (assay): DTP human tumour cell line panel, 48 h

As usually defined, the GI50 is the concentration that inhibits growth by half. As to `CN1CCCN(C)C1c1cc([N+](=O)[O-])ccc1O`, the GI50 was 33 µM (inactive) with 786-0; 22 µM (inactive) with CCRF-CEM; 21.5 µM (inactive) in the assay on HL-60; 40.7 µM (inactive) in the assay on HOP-62; 20.2 µM (inactive) with HOP-92; 19.1 µM (inactive) with M14. Besides, the GI50 was 24.9 µM (inactive) in the assay with MDA-MB-231; 31.2 µM (inactive) in the assay with MDA-MB-435; 23.5 µM (inactive) with Malme-3M; 30.1 µM (inactive) in the assay on NCI-H460; 41.8 µM (inactive) in the assay on OVCAR-3; > 100 µM (inactive) in the assay with OVCAR-5. The GI50 in the assay on RPMI-8226 was 31 µM (inactive); in the assay on SF-268 it was 34.2 µM (inactive); with SK-MEL-28 it was 27.9 µM (inactive); with SK-MEL-5, 19.7 µM (inactive); with SK-OV-3 it was 34.1 µM (inactive); with U-251, 26.5 µM (inactive). Also, the GI50 with UACC-257 is 19 µM (inactive).
Regarding `CC(=O)Nc1ccc(Cc2ccc3nc(O)cc(C)c3c2)cc1`, the GI50 was 24.3 µM (inactive) in the assay with 786-0; > 100 µM (inactive) in the assay with CCRF-CEM; > 100 µM (inactive) with HL-60; 33.8 µM (inactive) with HOP-62; > 100 µM (inactive) in the assay with HOP-92; > 100 µM (inactive) in the assay on M14. For the same molecule, the GI50 is 28.8 µM (inactive) in the assay on MDA-MB-231; > 100 µM (inactive) in the assay on MDA-MB-435; 87.7 µM (inactive) in the assay with Malme-3M; 62.1 µM (inactive) in the assay on NCI-H460; > 100 µM (inactive) in the assay on OVCAR-3; > 100 µM (inactive) with OVCAR-5. Moreover, the GI50 in the assay on RPMI-8226 was 17.2 µM (inactive); with SF-268, > 100 µM (inactive); with SK-MEL-28, > 100 µM (inactive); in the assay on SK-MEL-5, > 100 µM (inactive); in the assay on SK-OV-3, 87.3 µM (inactive); in the assay with U-251, 30.1 µM (inactive). In the assay on UACC-257, the GI50 was 67 µM (inactive).
For the molecule `O=C(C[N+]1(c2ccccc2)CCOCC1)c1ccccc1`, the GI50 is 60.5 µM (inactive) with 786-0; > 100 µM (inactive) with HCC 2998; > 100 µM (inactive) in the assay with HOP-62; > 100 µM (inactive) in the assay on HOP-92; > 100 µM (inactive) in the assay on M14; > 100 µM (inactive) in the assay on MDA-MB-231. Also, the GI50 with MDA-MB-435, in the assay with Malme-3M, in the assay with NCI-H460, with OVCAR-3, in the assay on OVCAR-5 and in the assay on SF-268 was > 100 µM (inactive) each time. The GI50 in the assay with SK-MEL-28 was 0.0445 µM (active); with SK-MEL-5, > 100 µM (inactive); in the assay with U-251, > 100 µM (inactive); with UACC-257, 72.8 µM (inactive).
With `CN1CCN(CCCBr)CC1`, the GI50 in the assay on 786-0, in the assay with CCRF-CEM, with HL-60, with HOP-62, with HOP-92 and in the assay on M14 was > 100 µM (inactive) throughout. Moreover, the GI50 in the assay with MDA-MB-231, in the assay on MDA-MB-435, with Malme-3M, in the assay with NCI-H460, in the assay on OVCAR-3 and in the assay on OVCAR-5 was > 100 µM (inactive) each time. In addition, the GI50 in the assay with RPMI-8226, in the assay with SF-268, in the assay with SK-MEL-28, in the assay on SK-MEL-5, in the assay with SK-OV-3 and in the assay with U-251 was > 100 µM (inactive) each time. Moreover, the GI50 in the assay on UACC-257 is > 100 µM (inactive).
Take `CC(=O)NNc1nc(-c2ccc([N+](=O)[O-])cc2)c(C#N)c(=O)n1C`: the GI50 with 786-0 was 22.1 µM (inactive); in the assay with CCRF-CEM, 50.7 µM (inactive); with HL-60, 25.9 µM (inactive); in the assay on HOP-62 it was 26.9 µM (inactive); in the assay with HOP-92, 13.5 µM (inactive); in the assay on M14, > 100 µM (inactive). Besides, the GI50 is 15.8 µM (inactive) in the assay on MDA-MB-231; 50.6 µM (inactive) in the assay with MDA-MB-435; > 100 µM (inactive) in the assay on Malme-3M; > 100 µM (inactive) with NCI-H460; 15.3 µM (inactive) with OVCAR-3; 27.5 µM (inactive) in the assay with OVCAR-5. In addition, the GI50 is 21.1 µM (inactive) in the assay with RPMI-8226; 33.1 µM (inactive) with SF-268; > 100 µM (inactive) in the assay on SK-MEL-28; > 100 µM (inactive) with SK-MEL-5; > 100 µM (inactive) with SK-OV-3; 20.8 µM (inactive) in the assay on U-251. Besides, the GI50 in the assay with UACC-257 was > 100 µM (inactive).
For the molecule `COC(=O)CCNC(=O)OCc1ccccc1`, the GI50 with 786-0, with CCRF-CEM, with HCC 2998, with HL-60, in the assay on HOP-62 and in the assay on M14 was > 100 µM (inactive) throughout. Further, the GI50 with MDA-MB-231, in the assay with MDA-MB-435, in the assay on Malme-3M, in the assay on NCI-H460, in the assay with OVCAR-3 and with OVCAR-5 was > 100 µM (inactive) in each case. Further, the GI50 with RPMI-8226, with SF-268, in the assay on SK-MEL-28, in the assay on SK-MEL-5, in the assay with SK-OV-3 and with U-251 was > 100 µM (inactive) throughout. In addition, the GI50 in the assay on UACC-257 is > 100 µM (inactive).
For the molecule `CC(C)(C)[Si](C)(C)OCCc1ccccc1C1CC2(S(=O)(=O)c3ccccc3)ON1CC2S(=O)(=O)c1ccccc1` (stereo unspecified), the GI50 in the assay with 786-0, with CCRF-CEM, in the assay on HCC 2998, with HOP-62, in the assay with M14 and in the assay with MDA-MB-231 was > 100 µM (inactive) in each case. Besides, the GI50 in the assay on MDA-MB-435, in the assay on NCI-H460, in the assay with OVCAR-3, in the assay on OVCAR-5, in the assay with SF-268 and in the assay with SK-MEL-28 was > 100 µM (inactive) throughout. The GI50 in the assay on SK-MEL-5, in the assay on SK-OV-3, with U-251 and with UACC-257 was > 100 µM (inactive) each time.
Turning to `Cc1ccc(S(=O)(=O)n2ccn3c(=O)cc(C)nc23)cc1`, the GI50 with 786-0, with CCRF-CEM, in the assay with HL-60, with HOP-62, with HOP-92 and in the assay on M14 was > 10 µM (inactive) each time. Moreover, the GI50 in the assay on MDA-MB-231, in the assay on MDA-MB-435, in the assay on Malme-3M, with NCI-H460, in the assay with OVCAR-3 and in the assay with OVCAR-5 was > 10 µM (inactive) in each case. Further, the GI50 with RPMI-8226, in the assay on SF-268, in the assay with SK-MEL-28, in the assay on SK-MEL-5, in the assay on SK-OV-3 and with U-251 was > 10 µM (inactive) each time. Further, the GI50 with UACC-257 was > 10 µM (inactive).
As to `Brc1ccc(-c2[nH]c3ccccc3c2/C=N\Nc2ccc(-c3nc4ccccc4[nH]3)cc2)cc1`, the concentration for 50% growth inhibition (GI50) in the assay with 786-0, with CCRF-CEM, in the assay on HCC 2998, with HL-60, with HOP-62 and in the assay on M14 was < 0.01 µM (active) in each case. Also, the GI50 with MDA-MB-231 was < 0.01 µM (active); with MDA-MB-435 it was < 0.01 µM (active); in the assay with Malme-3M, < 0.01 µM (active); in the assay on NCI-H460 it was < 0.01 µM (active); with OVCAR-3, < 0.01 µM (active); in the assay with OVCAR-5, < 0.0448 µM (active). Moreover, the concentration for 50% growth inhibition (GI50) in the assay with RPMI-8226 is < 0.01 µM (active); in the assay with SF-268 it was < 0.01 µM (active); in the assay with SK-MEL-5, < 0.01 µM (active); in the assay on SK-OV-3, < 0.01 µM (active); in the assay with U-251, < 0.01 µM (active); in the assay on UACC-257, 3.17 µM (inactive).
Turning to `O=C(CN1CCNCCN(CC(=O)N2CCCCC2)CCNCC1)N1CCCCC1`, the GI50 with 786-0 is 43.6 µM (inactive); with CCRF-CEM it was 52.4 µM (inactive); in the assay on HL-60 it was 32.2 µM (inactive); in the assay on HOP-62 it was > 100 µM (inactive); with HOP-92, > 100 µM (inactive); in the assay on M14 it was > 100 µM (inactive). The GI50 with MDA-MB-231 is > 100 µM (inactive); in the assay on MDA-MB-435, > 100 µM (inactive); with Malme-3M it was > 100 µM (inactive); with NCI-H460, 43 µM (inactive); in the assay on OVCAR-3, > 100 µM (inactive); with OVCAR-5 it was > 100 µM (inactive). Further, the GI50 with RPMI-8226 was > 100 µM (inactive); in the assay with SK-MEL-28 it was > 100 µM (inactive); in the assay on SK-MEL-5, 71.8 µM (inactive); in the assay with SK-OV-3 it was > 100 µM (inactive); in the assay on U-251 it was 93.1 µM (inactive); in the assay with UACC-257, > 100 µM (inactive).
Take `CC1Oc2c(c(=O)oc3ccccc23)[C@@]1(C)CC1C[C@H](C)C(=O)O1` (stereo partly specified): the GI50 in the assay on 786-0 is 16.4 µM (inactive); with CCRF-CEM, 5.96 µM (inactive); with HCC 2998, 23.2 µM (inactive); with HL-60, 27.5 µM (inactive); in the assay with HOP-62 it was 47.6 µM (inactive); in the assay with M14, 20.3 µM (inactive). The GI50 in the assay on MDA-MB-231 is 31.1 µM (inactive); in the assay with MDA-MB-435 it was 21.9 µM (inactive); with Malme-3M, 19.5 µM (inactive); with NCI-H460 it was > 10 µM (inactive); with OVCAR-3, 20.9 µM (inactive); with OVCAR-5 it was 83.8 µM (inactive). Besides, the GI50 in the assay with RPMI-8226 was 33.3 µM (inactive); with SF-268, 18.3 µM (inactive); with SK-MEL-28, 18.7 µM (inactive); in the assay with SK-MEL-5 it was 38.8 µM (inactive); in the assay with SK-OV-3, 50.5 µM (inactive); in the assay with U-251, 35.1 µM (inactive). Further, the GI50 in the assay on UACC-257 is 35.2 µM (inactive).
